# Assay results as given in patent US20240327364A1, “THERAPEUTIC TARGETING OF GPR68 TO INDUCE FERROPTOSIS” (University Of Maryland, Baltimore, priority 2023, published 2024).
# Experiments:
# [1] = tested on: A549; assay: Acid-induced Mucin-5AC production; format: cell-based, human; conditions: pH 6.4 buffered media, 24 hours
# Protocol: Lung (A549) cells were plated in 6-well plates. The cells then were rinsed and protein was isolated. Dot blots were made with anti Mucin-5AC antibodies, and an equivalent amount of protein was run on a western blot to detect alpha tubulin. Lung (A549) cells were cultured as above, but in pH 6.4 buffered media with increasing concentrations of OGM2. Mucin5AC and alpha tubulin were detected in the same way.
# In addition. A549 cells were cultured in pH 6.4 medium with or without OGM2 for 24 hours cells were then rinsed and then stained with Periodic Acid Staining solution which detects mucins. FIG. 30E is a schematic of cas9 mediated endogenous tagging of MU5AC genetic locus with nano-luciferase in A549 cells. For FIG. 30F, Muc5ac-Luc cells were cultured in pH 6.4 buffered medium with and without OGM2 for 24 hours. Cell lysates were then assayed for luciferase activity and normalized to untreated control. See results in FIG. 30F.
# [2] = tested on: Hep G2; assay: Cell Titer-Glo viability, Hepatocellular cancer; format: cell-based
# Protocol: OGM2 kills wide variety of cancer cell types. Cell sensitivity can be classified in to Very Sensitive (LC50<2 μM), Sensitive (LC50=2 to 10 μM), Mildly Sensitive (LC50>10 μM), and Refractory (no killing at 10 μM). The listed established cell were incubated with OGM2 at 2 μM or 10 μM for 72 hours under standard cell culture conditions, and relative cell number was assessed using Cell Titer-Glo Luminescent Cell Viability Assay (Promega™) following the manufacturer's instructions. Luminescence was determined using a Cytation 5 reader and Gen5 software package (BioTek™).
# Cancer cells, which are very sensitive to killing by OGM2 (LCs <2 μM), with reported mRNA expression of GPR68 and the related proton sensing receptor GPR4. LC50's (concentrations causing 50% lethality) were determined using CellTiter-Glo (Promega™, G7570). Cells were plated in 12-well plates (CELLTREAT Scientific Products, 229112) in 1 ml of DMEM with high glucose, GlutaMAX, HEPES, or RPMI 1640 with Penicillin-Streptomycin (ThermoFisher™, 10564029, 11875119 and 15140122) and 10% FBS. Cells were incubated overnight at 37° C. in 5% CO2. Then 1 mL of fresh media was added with DMSO, OGM, or positive control (Erastin; APExBIO Technology, LLC, B1524) and cells incubated for 3 days. On the third day, all media was removed, cells were rinsed with 1×PBS, PBS was removed, and 200 μL of 1× Passive Lysis Buffer (Promega™, E1941) was added to each well. […]. Subsequently, 20 μL of lysate was added to 100 μL CellTiter-Glo™ reagent on a LUMITRAC 200 plate (Greiner™ bio-one, 82050-726). Plates were briefly spun down and read on a GloMax-Multi Detection System (Promega™).
# The cells listed in the tables above were incubated with OGM2 at 2 μM or 10 μM for 72 hours under standard cell culture conditions, and relative cell number was assessed using Cell Titer-Glo Luminescent Cell Viability Assay (Promega™) following the manufacturer's instructions. Luminescence was determined using a Cytation 5 reader and Gen5 software package (BioTek™). RNA expression of GPR68 and GPR4 in the corresponding cancer cell lines are listed, according to the publicly available The Human Protein Atlas version 22.0 and Ensembl version 103.38 (see proteinatlas.org). The consensus normalized expression value (“nTPM”=normalize transcript per million) was calculated as the maximum nTPM value for each gene in the two data sources.
# [3] = molecular target: T1, INSR (Homo sapiens, UniProt P06213); assay: KinomeScan; format: binding; conditions: read-out: % Control
# T1 construct: purchased DiscoveRx (Fremont, CA)
# [4] = molecular target: T2, KIT(V559D, V654A) (Homo sapiens, UniProt P10721, V559D/V654A); assay: KinomeScan; format: binding; conditions: read-out: % Control
# T2 construct: purchased DiscoveRx
# [5] = molecular target: T3, KIT(L576P) (Homo sapiens, UniProt P10721, L576P); assay: KinomeScan; format: binding; conditions: read-out: % Control
# T3 construct: purchased DiscoveRx
# [6] = molecular target: T4, OPRM1 (Homo sapiens, UniProt P35372); assay: GPCR Profiler; format: cell-based
# T4 construct: host or cells: Chem-1 cells expressing Gα15
# [7] = molecular target: T5, TAOK3 (Homo sapiens, UniProt Q9H2K8); assay: KinomeScan; format: binding; conditions: read-out: % Control
# T5 construct: purchased DiscoveRx (Fremont, CA)
# [8] = molecular target: T6, LYN (Homo sapiens, UniProt P07948); assay: KinomeScan; format: binding; conditions: read-out: % Control
# T6 construct: purchased DiscoveRx
# [9] = molecular target: T7, EP4 (Homo sapiens, UniProt P35408); assay: GPCR Profiler; format: cell-based
# T7 construct: host or cells: Chem-1 cells expressing Gα15
# [10] = molecular target: T8, GAL1 (Homo sapiens, UniProt P47211); assay: GPCR Profiler; format: cell-based
# T8 construct: host or cells: Chem-1 cells expressing Gα15
# [11] = molecular target: T9, AURKC (Homo sapiens, UniProt Q9UQB9); assay: KinomeScan; format: binding; conditions: read-out: % Control
# T9 construct: purchased DiscoveRx (Fremont, CA)
# [12] = molecular target: CLK2 (Homo sapiens, UniProt P49760); assay: KinomeScan; format: binding; conditions: read-out: % Control
# [13] = molecular target: T10, 5-HT2C (Homo sapiens, UniProt P28335); assay: GPCR Profiler; format: cell-based
# T10 construct: host or cells: Chem-1 cells with promiscuous Gα15
# [14] = molecular target: T11, GCGR (Homo sapiens, UniProt P47871); assay: GPCR Profiler; format: cell-based
# T11 construct: host or cells: Chem-1 cells expressing Gα15
# [15] = molecular target: T12, LPA5 (Homo sapiens, UniProt Q9H1C0); assay: GPCR Profiler; format: cell-based
# T12 construct: host or cells: Chem-1 cells with promiscuous Gα15
# [16] = molecular target: T13, PIK3CA(E542K) (Homo sapiens, UniProt P42336, E542K); assay: KinomeScan; format: binding; conditions: read-out: % Control
# T13 construct: purchased DiscoveRx (Fremont, CA)
# [17] = molecular target: T14, PKAC-beta (Homo sapiens, UniProt P22694); assay: KinomeScan; format: binding; conditions: read-out: % Control
# T14 construct: purchased DiscoveRx (Fremont, CA)
# [18] = molecular target: T15, FLT3(K663Q) (Homo sapiens, UniProt P36888, K663Q); assay: KinomeScan; format: binding; conditions: read-out: % Control
# T15 construct: purchased DiscoveRx (Fremont, CA)
# [19] = molecular target: T16, ERBB3 (Homo sapiens, UniProt P21860); assay: KinomeScan; format: binding; conditions: read-out: % Control
# T16 construct: purchased DiscoveRx (Fremont, CA)
# T16 sequence (P21860 20-1342): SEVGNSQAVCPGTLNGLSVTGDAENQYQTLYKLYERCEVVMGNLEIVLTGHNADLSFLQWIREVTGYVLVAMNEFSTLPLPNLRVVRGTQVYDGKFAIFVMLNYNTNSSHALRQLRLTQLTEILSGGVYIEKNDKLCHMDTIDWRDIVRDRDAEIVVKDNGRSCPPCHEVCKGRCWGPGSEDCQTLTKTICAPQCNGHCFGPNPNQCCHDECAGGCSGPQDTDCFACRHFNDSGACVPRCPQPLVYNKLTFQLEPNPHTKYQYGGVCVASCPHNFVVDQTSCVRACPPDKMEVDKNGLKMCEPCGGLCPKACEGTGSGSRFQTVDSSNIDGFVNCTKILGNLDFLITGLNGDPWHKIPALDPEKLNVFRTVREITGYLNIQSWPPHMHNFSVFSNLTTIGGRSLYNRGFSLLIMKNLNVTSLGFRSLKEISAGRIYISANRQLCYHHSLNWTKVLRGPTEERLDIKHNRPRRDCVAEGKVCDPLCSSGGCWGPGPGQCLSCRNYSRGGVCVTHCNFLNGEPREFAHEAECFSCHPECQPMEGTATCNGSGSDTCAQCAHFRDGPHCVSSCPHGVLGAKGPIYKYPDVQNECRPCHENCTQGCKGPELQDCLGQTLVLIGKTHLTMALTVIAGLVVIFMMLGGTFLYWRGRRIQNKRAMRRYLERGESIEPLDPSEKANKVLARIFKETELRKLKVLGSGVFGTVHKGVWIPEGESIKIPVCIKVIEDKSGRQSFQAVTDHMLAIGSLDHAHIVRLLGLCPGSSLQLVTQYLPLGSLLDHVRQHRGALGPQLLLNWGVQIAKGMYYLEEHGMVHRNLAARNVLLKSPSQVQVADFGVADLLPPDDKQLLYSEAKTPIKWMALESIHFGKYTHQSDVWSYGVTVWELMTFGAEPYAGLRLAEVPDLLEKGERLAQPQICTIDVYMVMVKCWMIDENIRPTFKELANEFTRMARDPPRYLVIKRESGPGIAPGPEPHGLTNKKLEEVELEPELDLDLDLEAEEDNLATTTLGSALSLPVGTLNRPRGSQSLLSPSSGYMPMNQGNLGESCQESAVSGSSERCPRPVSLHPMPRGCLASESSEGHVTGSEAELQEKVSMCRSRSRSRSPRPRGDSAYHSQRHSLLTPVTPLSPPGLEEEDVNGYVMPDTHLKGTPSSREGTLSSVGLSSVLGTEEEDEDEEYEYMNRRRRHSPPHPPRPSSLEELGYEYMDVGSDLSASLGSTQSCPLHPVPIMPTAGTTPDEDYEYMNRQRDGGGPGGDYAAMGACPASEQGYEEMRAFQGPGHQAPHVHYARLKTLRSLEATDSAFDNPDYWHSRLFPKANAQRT
# T4 sequence (P35372 whole entry, species assumed): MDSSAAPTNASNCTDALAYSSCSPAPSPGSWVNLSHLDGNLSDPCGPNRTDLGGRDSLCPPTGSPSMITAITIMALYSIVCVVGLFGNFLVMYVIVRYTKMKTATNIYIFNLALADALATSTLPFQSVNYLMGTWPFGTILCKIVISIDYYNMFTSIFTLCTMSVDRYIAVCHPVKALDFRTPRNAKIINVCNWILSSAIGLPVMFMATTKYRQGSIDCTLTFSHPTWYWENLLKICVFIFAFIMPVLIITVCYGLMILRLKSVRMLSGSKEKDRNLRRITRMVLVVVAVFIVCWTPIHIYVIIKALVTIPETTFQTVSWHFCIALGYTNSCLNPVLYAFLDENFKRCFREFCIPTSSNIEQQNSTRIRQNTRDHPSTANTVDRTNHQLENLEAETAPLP
# T7 sequence (P35408 whole entry): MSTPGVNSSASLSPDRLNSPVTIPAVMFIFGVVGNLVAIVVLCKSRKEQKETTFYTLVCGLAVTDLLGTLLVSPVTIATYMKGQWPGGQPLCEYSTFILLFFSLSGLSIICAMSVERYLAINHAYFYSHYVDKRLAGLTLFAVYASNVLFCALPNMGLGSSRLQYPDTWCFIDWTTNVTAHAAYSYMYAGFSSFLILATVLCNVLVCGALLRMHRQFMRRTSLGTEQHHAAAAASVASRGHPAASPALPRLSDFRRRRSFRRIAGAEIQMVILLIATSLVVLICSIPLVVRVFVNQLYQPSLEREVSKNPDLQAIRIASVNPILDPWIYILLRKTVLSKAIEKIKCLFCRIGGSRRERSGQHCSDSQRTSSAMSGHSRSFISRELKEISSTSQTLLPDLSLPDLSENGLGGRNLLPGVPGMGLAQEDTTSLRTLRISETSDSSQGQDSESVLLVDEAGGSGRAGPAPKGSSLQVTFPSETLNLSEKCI
# T8 sequence (P47211 whole entry): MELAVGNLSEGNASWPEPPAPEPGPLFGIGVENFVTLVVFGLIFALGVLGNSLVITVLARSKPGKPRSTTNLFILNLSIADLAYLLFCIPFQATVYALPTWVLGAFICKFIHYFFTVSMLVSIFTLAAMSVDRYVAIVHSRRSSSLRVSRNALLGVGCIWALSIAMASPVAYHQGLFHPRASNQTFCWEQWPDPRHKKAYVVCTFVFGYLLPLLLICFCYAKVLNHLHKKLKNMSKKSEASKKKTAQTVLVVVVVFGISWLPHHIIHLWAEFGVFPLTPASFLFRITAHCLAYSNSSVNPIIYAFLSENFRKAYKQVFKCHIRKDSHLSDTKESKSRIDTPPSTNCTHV
# T10 sequence (P28335 33-458): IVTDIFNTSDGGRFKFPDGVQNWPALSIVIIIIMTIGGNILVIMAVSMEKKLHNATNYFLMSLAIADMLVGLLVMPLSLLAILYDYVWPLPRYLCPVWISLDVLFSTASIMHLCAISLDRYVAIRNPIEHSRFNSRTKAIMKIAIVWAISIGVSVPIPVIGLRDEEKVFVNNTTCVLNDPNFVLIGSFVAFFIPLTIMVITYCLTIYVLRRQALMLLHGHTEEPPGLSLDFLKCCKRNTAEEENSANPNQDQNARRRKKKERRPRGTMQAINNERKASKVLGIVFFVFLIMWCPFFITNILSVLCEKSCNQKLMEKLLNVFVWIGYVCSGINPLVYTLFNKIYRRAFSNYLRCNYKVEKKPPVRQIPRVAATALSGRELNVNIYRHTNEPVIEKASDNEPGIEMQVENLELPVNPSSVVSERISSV
# T12 sequence (Q9H1C0 whole entry, species assumed): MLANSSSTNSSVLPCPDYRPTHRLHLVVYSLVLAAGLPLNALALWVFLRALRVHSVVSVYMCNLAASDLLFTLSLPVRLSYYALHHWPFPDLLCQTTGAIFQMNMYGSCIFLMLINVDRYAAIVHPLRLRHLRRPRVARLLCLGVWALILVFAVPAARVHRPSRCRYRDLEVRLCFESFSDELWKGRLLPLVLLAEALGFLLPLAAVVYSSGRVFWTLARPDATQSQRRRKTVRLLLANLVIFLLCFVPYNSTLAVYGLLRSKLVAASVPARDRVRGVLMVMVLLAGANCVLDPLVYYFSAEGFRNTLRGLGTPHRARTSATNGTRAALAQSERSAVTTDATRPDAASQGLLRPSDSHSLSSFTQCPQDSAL
# T11 sequence (P47871 26-477): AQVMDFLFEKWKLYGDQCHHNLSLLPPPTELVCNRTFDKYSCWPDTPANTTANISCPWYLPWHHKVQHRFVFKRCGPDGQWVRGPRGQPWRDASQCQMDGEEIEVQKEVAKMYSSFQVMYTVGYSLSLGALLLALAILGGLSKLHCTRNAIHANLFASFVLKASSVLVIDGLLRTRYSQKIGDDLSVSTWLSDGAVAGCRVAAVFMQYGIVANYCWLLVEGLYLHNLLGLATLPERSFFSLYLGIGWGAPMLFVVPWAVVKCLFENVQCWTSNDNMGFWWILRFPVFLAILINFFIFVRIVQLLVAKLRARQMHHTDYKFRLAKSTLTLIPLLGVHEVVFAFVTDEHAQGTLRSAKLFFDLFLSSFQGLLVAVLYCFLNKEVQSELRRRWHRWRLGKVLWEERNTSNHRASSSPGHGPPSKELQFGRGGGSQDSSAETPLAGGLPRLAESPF
# T2 sequence (P10721 26-976 V559D/V654A): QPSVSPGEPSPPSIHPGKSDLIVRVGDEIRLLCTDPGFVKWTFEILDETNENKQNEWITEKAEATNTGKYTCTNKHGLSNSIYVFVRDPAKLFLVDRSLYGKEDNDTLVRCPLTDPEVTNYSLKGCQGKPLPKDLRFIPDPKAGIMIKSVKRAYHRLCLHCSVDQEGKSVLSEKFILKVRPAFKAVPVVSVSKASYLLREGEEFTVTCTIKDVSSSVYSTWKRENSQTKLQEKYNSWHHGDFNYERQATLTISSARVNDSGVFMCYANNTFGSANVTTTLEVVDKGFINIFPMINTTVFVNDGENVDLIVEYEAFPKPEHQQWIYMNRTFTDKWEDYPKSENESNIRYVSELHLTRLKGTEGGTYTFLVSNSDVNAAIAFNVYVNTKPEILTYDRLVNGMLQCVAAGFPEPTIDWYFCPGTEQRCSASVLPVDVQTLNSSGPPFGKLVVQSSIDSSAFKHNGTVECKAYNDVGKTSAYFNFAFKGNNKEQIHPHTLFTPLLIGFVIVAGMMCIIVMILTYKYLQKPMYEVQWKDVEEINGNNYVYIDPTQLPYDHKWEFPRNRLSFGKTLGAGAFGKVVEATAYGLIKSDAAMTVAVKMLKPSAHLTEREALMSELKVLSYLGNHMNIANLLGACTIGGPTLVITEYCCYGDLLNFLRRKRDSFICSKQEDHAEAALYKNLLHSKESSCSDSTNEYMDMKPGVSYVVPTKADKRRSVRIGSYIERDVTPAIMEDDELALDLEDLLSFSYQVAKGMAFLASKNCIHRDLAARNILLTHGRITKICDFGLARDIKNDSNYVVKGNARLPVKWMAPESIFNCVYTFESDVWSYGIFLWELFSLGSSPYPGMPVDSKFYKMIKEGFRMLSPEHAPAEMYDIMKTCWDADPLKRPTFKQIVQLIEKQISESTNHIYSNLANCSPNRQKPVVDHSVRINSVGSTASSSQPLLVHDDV
# T3 sequence (P10721 26-976 L576P): as the sequence (P10721 26-976 V559D/V654A) above, with D534V, L551P, A629V counted along it
smiles,measurement,setting,value
CCc1ccc2c(c1)C1(NN=C(c3ccccc3)S1)C(=O)N2 (stereo not shown) [OGM2],Mucin production,[1],inhibits Mucin production
same,Class,[2],Sensitive (Sensitive (LC50=2 to 10 μM))
same,% Survival 2 μM OGM,[2]; 72 hours,66.8%
same,% Survival 10 μM OGM,[2]; 72 hours,45.7%
same,CC50,"[2]; Homo sapiens, HepG2, 72 hours, read-out: LC50 (the source's name)",2 to 10 µM
"CCc1ccc2c(c1)C1(NN=C(c3cccc4ccccc34)S1)C(=O)N2 (stereo not shown) [OGM1, 5-ethyl-5′-naphthalen-1-ylspiro[1H-indole-3,2′-3H-1,3,4-thiadiazole]-2-one]",remaining binding at 10 µM,[3],80%
same,remaining binding at 10 µM,[4],100%
same,remaining binding at 10 µM,[5],82%
same,Antagonism,[6]; 10 uM,−0.7
same,Agonism,[6]; 12.5 uM,−0.7
same,remaining binding at 10 µM,[7],79%
same,remaining binding at 10 µM,[8],100%
same,Antagonism,[9]; 10 uM,−17
same,Agonism,[9]; 12.5 uM,0.9
same,Antagonism,[10]; 10 uM,−7.3
same,Agonism,[10]; 12.5 uM,1.6
same,remaining binding at 10 µM,[11],100%
same,remaining binding at 10 µM,[12],61%
same,Antagonism,[13]; 10 uM,−10.9
same,Agonism,[13]; 12.5 uM,2.2
same,Antagonism,[14]; 10 uM,6.1
same,Agonism,[14]; 12.5 uM,−0.1
same,Antagonism,[15]; 10 uM,−16.2
same,Agonism,[15]; 12.5 uM,−0.1
same,remaining binding at 10 µM,[16],73%
same,remaining binding at 10 µM,[17],96%
same,remaining binding at 10 µM,[18],100%
same,remaining binding at 10 µM,[19],84%
